We go through 14 compounds from patent US7812022B2 (GlaxoSmithKline LLC, priority 2004, dated 2010).

In one assay the target is T1, ErbB2 or EGFR.
T1 construct: enzymes purified from a baculovirus expression system; Reagent production was conducted essentially as described in Brignola, P. S., et al, (2002) J. Biol. Chem. 277(2): 1576-1585
The assay is described as follows: ErbB family substrate phosphorylation enzyme assay (HTRF), Method A or Method B. The assay is classed as biochemical. The method, boiled down: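 Baculovirus-expressed EGFR or ErbB2 (0.8 or 10 nM in enzyme mix) phosphorylates biotinylated Peptide C with 20 µM ATP and 0.8 µM peptide (substrate-mix levels), MnCl2, pH 7.5. Reaction ran 90 min at 20 °C with EDTA stop and HTRF anti-phosphotyrosine read. Method A: enzyme added last; Method B: 1 h enzyme–compound preincubation.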

Assay [1] concerns BT474 and HN5 tumor cell lines. The experiment in a line: Methylene blue growth inhibition assay (cellular Method A). The assay is classed as cell-based, Human. As to conditions: Homo sapiens, BT-474, 72 h, 3 days, read-out: Activity (Method): growth inhibition IC50 class. The method, boiled down: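 Colo205, BT474 and HN5 cells in DMEM/10% FBS (BT474 10,000, HN5 3,000 cells/well) treated next day with compound in DMEM, 0.3% final DMSO, for 3 days at 37° C. Biomass stained with methylene blue, solubilized, read at OD 620; IC50 interpolated by nonlinear regression from % inhibition versus vehicle.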

A further assay relates to Colo205 tumor cell lines. The assay is described as follows: Methylene blue growth inhibition assay (cellular Method A), Colo205. It is filed as cell-based, Human. As to conditions: Homo sapiens, COLO 205, 72 h, 3 days, read-out: Activity (Method): growth inhibition IC50 class. As for the experimental part:
Human breast (BT474) and head and neck (HN5) were cultured in low glucose DMEM (Life Technologies 12320-032) containing 10% fetal bovine serum (FBS). Human colon tumor cells (Colo205) were cultured in DMEM (Invitrogen, 10564) containing 10% FBS. The SV40 transformed human mammary epithelial cell line HB4a was transfected with either human H-ras cDNA (HB4a r4.2) or the human c-ErbB2 cDNA (HB4a c5.2). The HB4a clones were cultured in RPMI containing 10% FBS, insulin (5 g/mL), hydrocortisone (5 g/mL), supplemented with the selection agent hygromycin B (50 g/mL). All lines were grown in a humidified incubator at 37° C. in 95% air, 5% CO2. Cells were harvested using trypsin/EDTA, counted using a haemocytometer, and plated in 100 microliters of the appropriate media, at the following densities, in a 96-well tissue culture plate (Falcon 3075): BT474 10,000 cells/well, HN5 3,000 cells/well. The next day, compounds were diluted in DMEM containing […] gentamicin, at twice the final required concentration, from 10 mM stock solutions in DMSO. 100 microliters/well of these dilutions were added to the 100 microliters of media currently on the cell plates. Medium containing 0.6% DMSO was added to control wells. Compounds diluted in DMEM were added to all cell lines. The final concentration of DMSO in all wells was 0.3%. Cells were returned to the incubator (37° C., 10% CO2) for 3 days. Medium was then removed by aspiration. Cell biomass was estimated by staining cells with 90 microliters per well methylene blue (Sigma M9140, 0.5% in 1:1 ethanol:water), and incubation at rt for at least 30 minutes. Stain was removed, and the plates rinsed by immersion in deionized water and air-dried. To release stain from the cells 100 microliters of solubilization solution was added (1% N-lauroyl sarcosine, Sodium salt, Sigma L5125, in PBS), and plates were shaken gently for about 30 minutes. Optical density at 620 nm was measured on a microplate reader. Percent inhibition of cell growth was calculated relative to vehicle treated control wells. Concentration of compound that inhibits 50% of control cell growth (IC50) was interpolated using nonlinear regression (Levenberg-Marquardt) and the equation, y=Vmax*(1−(x/(K+x)))+Y2, where “K” was equal to the IC50. Method B: Celltiter Glo® Growth Inhibition Assays

[2] abbreviates: Method A: substrate mix added first, reaction started with enzyme mix.
[3] abbreviates: Method B: enzyme mix pre-incubated with compound 1 hour at 20° C., started with substrate mix.

Usually IC50 stands for the midpoint of a concentration-inhibition curve. As for `CN1CCN(CCOc2ccc(Nc3nccc(-c4c(-c5cccc(NC(=O)c6c(F)cccc6F)c5)nn5ccccc45)n3)cc2)CC1` [Example 106, 2,6-Difluoro-N-[3-(3-{2-[(4-{[2-(4-methyl-1-piperazinyl)ethyl]oxy}phenyl)amino]-4-pyrimidinyl}pyrazolo[1,5-a]pyridin-2-yl)phenyl]benzamide], on ErbB2 or EGFR (setting [2]), the “Activity (Method): pIC50 class against ErbB2 or EGFR” value (“Activity (Method): pIC50 class” below) was “+++ (A) (at least one pIC50 measurement of greater than 7 against either ErbB2 or EGFR)”. The IC50 in assay [1] is below 100 nM; in the assay on Colo205 tumor cell lines it was 100 to 1000 nM.

As for `O=C(Nc1cccc(-c2nn3ccccc3c2-c2ccnc(Nc3ccc(N4CCCC4=O)cc3)n2)c1)c1cc(F)ccc1F` [Example 50, 2,5-Difluoro-N-{3-[3-(2-{[4-(2-oxo-1-pyrrolidinyl)phenyl]amino}-4-pyrimidinyl)pyrazolo[1,5-a]pyridin-2-yl]phenyl}benzamide], the “Activity (Method): pIC50 class” value at ErbB2 or EGFR (setting [2]) is “+++ (A) (at least one pIC50 measurement of greater than 7 against either ErbB2 or EGFR)”. Moreover, the IC50 in assay [1] is 100 to 1000 nM; with Colo205 tumor cell lines it was above 1000 nM.

Consider `COc1ccc(Nc2nccc(-c3c(-c4cccc(NC(=O)c5c(F)cccc5F)c4)nn4ccccc34)n2)cc1OCCN(C)C` [Example 167, N-{3-[3-(2-{[3-{[2-(Dimethylamino)ethyl]oxy}-4-(methyloxy)phenyl]amino}-4-pyrimidinyl)pyrazolo[1,5-a]pyridin-2-yl]phenyl}-2,6-difluorobenzamide], for which the “Activity (Method): pIC50 class” value at ErbB2 or EGFR (setting [3]) is on record as “+++ (B) (at least one pIC50 measurement of greater than 7 against either ErbB2 or EGFR)”. Also, the IC50 was below 100 nM in assay [1] and 100 to 1000 nM in the assay with Colo205 tumor cell lines.

Consider `NS(=O)(=O)CCc1cccc(Nc2nccc(-c3c(-c4cccc(NC(=O)c5c(F)cccc5F)c4)nn4ccccc34)n2)c1` [Example 119, N-(3-{3-[2-({3-[2-(aminosulfonyl)ethyl]phenyl}-amino)-4-pyrimidinyl]pyrazolo[1,5-a]pyridin-2-yl}phenyl)-2,6-difluorobenzamide], for which the “Activity (Method): pIC50 class” value on ErbB2 or EGFR (setting [3]) is on record as “+++ (B) (at least one pIC50 measurement of greater than 7 against either ErbB2 or EGFR)”. The concentration for half-maximal inhibition (IC50) in assay [1] was below 100 nM; with Colo205 tumor cell lines, 100 to 1000 nM.

For `CN1CCN(Cc2cccc(Nc3nccc(-c4c(-c5cccc(NC(=O)c6c(F)cccc6F)c5)nn5ccccc45)n3)c2)CC1` [Example 57, 2,6-Difluoro-N-(3-{3-[2-({3-[(4-methyl-1-piperazinyl)-methyl]phenyl}amino)-4-pyrimidinyl]pyrazolo[1,5-a]pyridin-2-yl}phenyl)benzamide], at ErbB2 or EGFR (setting [3]), the “Activity (Method): pIC50 class” value is listed as “+++ (B) (at least one pIC50 measurement of greater than 7 against either ErbB2 or EGFR)”. Besides, the IC50 in assay [1] is below 100 nM; with Colo205 tumor cell lines, 100 to 1000 nM.

On to `O=C(Nc1cccc(-c2nn3ccccc3c2-c2ccnc(Nc3cccc(CCCN4CCOCC4)c3)n2)c1)c1c(F)cccc1F` [Example 55, 2,6-Difluoro-N-(3-{3-[2-({3-[3-(4-morpholinyl)propyl]-phenyl}amino)-4-pyrimidinyl]pyrazolo[1,5-a]pyridin-2-yl}phenyl)benzamide], for which the “Activity (Method): pIC50 class” value on ErbB2 or EGFR (setting [3]) is listed as “+++ (B) (at least one pIC50 measurement of greater than 7 against either ErbB2 or EGFR)”. The IC50 is below 100 nM in assay [1] and 100 to 1000 nM with Colo205 tumor cell lines.

Consider `Cn1cncc1C(=O)Nc1cccc(-c2nn3ccccc3c2-c2ccnc(Nc3cccc(F)c3)n2)c1` [Example 84, N-[3-(3-{2-[(3-fluorophenyl)amino]-4-pyrimidinyl}-pyrazolo[1,5-a]pyridin-2-yl)phenyl]-1-methyl-1H-imidazole-5-carboxamide], for which the “Activity (Method): pIC50 class” value at ErbB2 or EGFR (setting [3]) is listed as “+++ (B) (at least one pIC50 measurement of greater than 7 against either ErbB2 or EGFR)”. The IC50 (in assay [1]; with Colo205 tumor cell lines) was above 1000 nM in each case.

As to `COc1ccc(Nc2nccc(-c3c(-c4cccc(NC(=O)c5cc(F)ccc5F)c4)nn4ccccc34)n2)cc1F` [Example 46, 2,5-Difluoro-N-{3-[3-(2-{[3-fluoro-4-(methyloxy)phenyl]amino}-4-pyrimidinyl)pyrazolo[1,5-a]pyridin-2-yl]phenyl}benzamide], the “Activity (Method): pIC50 class” value on ErbB2 or EGFR (setting [3]) is “+ (B) (no pIC50 measurement greater than 6 against either ErbB2 or EGFR)”. Also, the IC50 (in assay [1]; with Colo205 tumor cell lines) was above 1000 nM in each case.

For `COc1ccc(Nc2nccc(-c3c(-c4cccc(NC(=O)c5c(F)cccc5F)c4)nn4ccccc34)n2)cc1F` [Example 29, 2,6-Difluoro-N-{3-[3-(2-{[3-fluoro-4-(methyloxy)-phenyl]amino}-4-pyrimidinyl)pyrazolo[1,5-a]pyridin-2-yl]phenyl}benzamide], the “Activity (Method): pIC50 class” value on ErbB2 or EGFR (setting [2]) is recorded as “++ (A) (at least one pIC50 measurement greater than 6 against either ErbB2 or EGFR but no measurement greater than pIC50 of 7)”. The IC50 in assay [1] is below 100 nM; with Colo205 tumor cell lines, above 1000 nM.

With `Cc1nc2cc(Nc3nccc(-c4c(-c5cccc(NC(=O)c6c(F)cccc6F)c5)nn5ccccc45)n3)ccc2s1` [Example 199, 2,6-Difluoro-N-[3-(3-{2-[(2-methyl-1,3-benzothiazol-5-yl)amino]-4-pyrimidinyl}pyrazolo[1,5-a]pyridin-2-yl)phenyl]benzamide], the “Activity (Method): pIC50 class” value at ErbB2 or EGFR (setting [3]) is listed as “+++ (B) (at least one pIC50 measurement of greater than 7 against either ErbB2 or EGFR)”. In addition, the IC50 was below 100 nM in assay [1] and above 1000 nM in the assay on Colo205 tumor cell lines.

As for `CN1CCC[C@H]1COc1ccc(Nc2nccc(-c3c(-c4cccc(NC(=O)c5c(F)cccc5F)c4)nn4ccccc34)n2)cc1F` [Example 132, 2,6-Difluoro-N-{3-[3-(2-{[3-fluoro-4-({[(2S)-1-methyl-2-pyrrolidinyl]methyl}oxy)phenyl]amino}-4-pyrimidinyl)pyrazolo[1,5-a]pyridin-2-yl]phenyl}benzamide], the “Activity (Method): pIC50 class” value on ErbB2 or EGFR (setting [3]) is reported as “+++ (B) (at least one pIC50 measurement of greater than 7 against either ErbB2 or EGFR)”. For the same compound, the IC50 (in assay [1]; in the assay with Colo205 tumor cell lines) was below 100 nM each time.

With `COc1cc(Nc2nccc(-c3c(-c4cccc(NC(=O)c5c(F)cccc5F)c4)nn4ccccc34)n2)cc(OC)c1OC` [Example 120, 2,6-Difluoro-N-{3-[3-(2-{[3,4,5-tris(methyloxy)-phenyl]amino}-4-pyrimidinyl)pyrazolo[1,5-a]pyridin-2-yl]phenyl}benzamide], the “Activity (Method): pIC50 class” value at ErbB2 or EGFR (setting [3]) is “+++ (B) (at least one pIC50 measurement of greater than 7 against either ErbB2 or EGFR)”. Besides, the IC50 (in assay [1]; in the assay on Colo205 tumor cell lines) was 100 to 1000 nM throughout.

As to `O=C(Nc1cccc(-c2nn3ccccc3c2-c2ccnc(Nc3cccc(S(=O)(=O)CCO)c3)n2)c1)c1c(F)cccc1F` [Example 58, 2,6-Difluoro-N-(3-{3-[2-({3-[(2-hydroxyethyl)sulfonyl]-phenyl}amino)-4-pyrimidinyl]pyrazolo[1,5-a]pyridin-2-yl}phenyl)benzamide], the “Activity (Method): pIC50 class” value on ErbB2 or EGFR (setting [3]) is on record as “+++ (B) (at least one pIC50 measurement of greater than 7 against either ErbB2 or EGFR)”. Besides, the values for the IC50 (in assay [1]; in the assay on Colo205 tumor cell lines) were below 100 nM and above 1000 nM, respectively.

With `O=C(Nc1cccc(-c2nn3ccccc3c2-c2ccnc(Nc3ccc(-c4cc[nH]n4)cc3)n2)c1)c1c(F)cccc1F` [Example 101, 2,6-Difluoro-N-{3-[3-(2-{[4-(1H-pyrazol-3-yl)phenyl]amino}-4-pyrimidinyl)pyrazolo[1,5-a]pyridin-2-yl]phenyl}benzamide], the IC50 in assay [1] is 100 to 1000 nM; in the assay on Colo205 tumor cell lines, above 1000 nM.
